Results: US20080161320A1, “FUSED BICYCLIC PYRIMIDINES AS PTK INHIBITORS CONTAINING A ZINC BINDING MOIETY” (priority 2006, published 2008)

Columns and labels:
HDAC = HDAC fluorimetric assay kit (AK-500, Biomol), HeLa nuclear extract; format: biochemical
Experimental: HDAC inhibitors were screened using an HDAC fluorimetric assay kit (AK-500, Biomol, Plymouth Meeting, Pa.). […] Each assay was setup as follows: Defrosted all kit components and kept on ice until use. […] Prepared dilutions of Trichostatin A (TSA, positive control) and tested compounds in assay buffer (5× of final concentration). Diluted Fluor de Lys™ Substrate in assay buffer to 100 uM (50 fold=2× final). Diluted Fluor de Lys™ developer concentrate 20-fold (e.g. 50 μl plus 950 μl Assay Buffer) in cold assay buffer. Second, diluted the 0.2 mM Trichostatin A 100-fold in the 1× Developer (e.g. 10 μl in 1 ml; final Trichostatin A concentration in the 1× Developer=2 μM; final concentration after addition to HDAC/Substrate reaction=1 μM). Added Assay buffer, diluted trichostatin A or test inhibitor to appropriate wells of the microtiter plate. Added diluted HeLa extract or other HDAC sample to all wells except for negative controls.

human EGFR = molecular target: T1, human EGFR (Homo sapiens, UniProt P00533); assay: HTScan Receptor Kinase Assay, EGFR; format: biochemical
T1 construct: human EGFR (His672-Ala1210); GST (N); purchased Cell Signaling Technologies; host or cells: baculovirus expression system
T1 sequence (P00533 672-1210): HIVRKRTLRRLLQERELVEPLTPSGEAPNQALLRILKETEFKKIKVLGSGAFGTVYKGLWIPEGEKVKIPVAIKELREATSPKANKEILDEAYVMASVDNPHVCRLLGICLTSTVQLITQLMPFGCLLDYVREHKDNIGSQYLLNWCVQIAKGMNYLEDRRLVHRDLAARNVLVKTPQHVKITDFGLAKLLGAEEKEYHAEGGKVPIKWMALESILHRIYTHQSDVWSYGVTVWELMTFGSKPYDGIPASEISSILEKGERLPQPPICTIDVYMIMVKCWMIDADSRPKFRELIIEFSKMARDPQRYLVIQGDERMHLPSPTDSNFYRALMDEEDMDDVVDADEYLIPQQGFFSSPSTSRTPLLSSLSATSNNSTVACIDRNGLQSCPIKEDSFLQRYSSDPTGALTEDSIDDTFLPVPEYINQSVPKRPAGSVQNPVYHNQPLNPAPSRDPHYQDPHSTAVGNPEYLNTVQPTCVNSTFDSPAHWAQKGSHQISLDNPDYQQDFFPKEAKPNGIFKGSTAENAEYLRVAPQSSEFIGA

human HER2/ErbB2 = human HER2/ErbB2 (Homo sapiens, UniProt P04626); assay: HTScan Receptor Kinase Assay, HER2/ErbB2;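 note: europium time-resolved fluorescence detection of anti-phosphotyrosine antibody binding to biotinylated FLT3 (Tyr589) peptide phosphorylated by the kinase, 30 min reaction at room temperature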
Chain of human HER2/ErbB2 (P04626 676-1255): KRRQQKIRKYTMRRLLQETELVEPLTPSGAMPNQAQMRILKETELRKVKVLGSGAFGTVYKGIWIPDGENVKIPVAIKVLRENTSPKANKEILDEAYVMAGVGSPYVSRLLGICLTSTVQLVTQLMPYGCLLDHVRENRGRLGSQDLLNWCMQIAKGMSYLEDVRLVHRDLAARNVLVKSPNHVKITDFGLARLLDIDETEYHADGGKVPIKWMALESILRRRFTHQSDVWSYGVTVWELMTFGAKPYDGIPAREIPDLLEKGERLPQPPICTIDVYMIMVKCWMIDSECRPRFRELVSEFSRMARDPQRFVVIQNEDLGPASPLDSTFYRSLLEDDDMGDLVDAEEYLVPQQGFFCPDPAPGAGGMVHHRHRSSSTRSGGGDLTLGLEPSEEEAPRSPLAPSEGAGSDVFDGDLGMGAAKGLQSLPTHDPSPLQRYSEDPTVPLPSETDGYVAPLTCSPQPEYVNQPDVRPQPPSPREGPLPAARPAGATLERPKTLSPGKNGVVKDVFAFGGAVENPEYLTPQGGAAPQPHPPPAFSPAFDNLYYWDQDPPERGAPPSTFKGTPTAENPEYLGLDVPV

human VEGFR2 = human VEGFR2 (Homo sapiens, UniProt P35968); assay: HTScan Receptor Kinase Assay, VEGFR2;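 note: recombinant GST-His-tagged human VEGFR2 kinase domain phosphorylating biotinylated gastrin precursor peptide, 30 min at room temperature, phosphotyrosine detected by Europium-labelled antibody time-resolved fluorescence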
Chain of human VEGFR2 (P35968 807-1356 limits assumed): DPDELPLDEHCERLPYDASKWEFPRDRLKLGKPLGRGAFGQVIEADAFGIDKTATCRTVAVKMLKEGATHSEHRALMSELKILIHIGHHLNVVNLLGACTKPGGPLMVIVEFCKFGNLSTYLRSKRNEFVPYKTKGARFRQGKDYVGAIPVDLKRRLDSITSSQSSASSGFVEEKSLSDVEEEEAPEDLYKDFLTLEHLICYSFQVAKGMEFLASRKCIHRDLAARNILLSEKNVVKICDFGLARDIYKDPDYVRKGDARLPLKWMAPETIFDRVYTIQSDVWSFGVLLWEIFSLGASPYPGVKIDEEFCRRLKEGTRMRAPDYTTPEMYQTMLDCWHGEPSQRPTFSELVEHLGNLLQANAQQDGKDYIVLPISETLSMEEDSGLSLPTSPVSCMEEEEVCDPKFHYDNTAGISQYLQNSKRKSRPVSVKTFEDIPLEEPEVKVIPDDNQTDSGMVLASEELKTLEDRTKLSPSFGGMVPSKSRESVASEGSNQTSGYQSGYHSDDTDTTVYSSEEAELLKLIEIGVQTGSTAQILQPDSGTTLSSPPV

SMILES | IC50 (HDAC) [µM] | IC50 (human EGFR) [µM] | IC50 (human HER2/ErbB2) [µM] | IC50 (human VEGFR2) [µM]
C[C@@H](Nc1ncnc2[nH]c(-c3ccc(CN4CCN(CC(=O)NO)CC4)cc3)cc12)c1ccccc1 [Compound 11, (R)—N-Hydroxy-2-(4-(4-(4-(1-phenylethylamino)-7H-pyrrolo[2,3-d]pyrimidin-6-yl)benzyl)piperazin-1-yl)acetamide] | > 10 | < 0.1 | < 0.1 | < 0.1
C[C@@H](Nc1ncnc2[nH]c(-c3ccc(CN4CCN(CCCCCCC(=O)NO)CC4)cc3)cc12)c1ccccc1 [Compound 16, (R)—N-Hydroxy-7-(4-(4-(4-(1-phenylethylamino)-7H-pyrrolo[2,3-d]pyrimidin-6-yl)benzyl)piperazin-1-yl)heptanamide] | 0.1 to 1 | < 0.1 | < 0.1 | 0.1 to 1
C[C@@H](Nc1ncnc2[nH]c(-c3ccc(CN4CCN(CCCCCC(=O)NO)CC4)cc3)cc12)c1ccc(F)cc1 [Compound 35] | 0.1 to 1 |  | 0.1 to 1 | 0.1 to 1
C[C@@H](Nc1ncnc2[nH]c(-c3ccc(CNCc4ccc(/C=C/C(=O)NO)cc4)cc3)cc12)c1ccccc1 [Compound 45, (R,E)-N-hydroxy-3-(4-((4-(4-(1-phenylethylamino)-7H-pyrrolo[2,3-d]pyrimidin-6-yl)benzylamino)methyl)phenyl)acrylamide] |  | > 10 | > 10 | > 10
C[C@@H](Nc1ncnc2[nH]c(-c3ccc(NC(=O)Nc4ccc(C(=O)NO)cc4)cc3)cc12)c1ccccc1 [Compound 46] | 0.1 to 1 |  |  | 
C[C@@H](Nc1ncnc2[nH]c(-c3ccc(NC(=O)Nc4ccc(/C=C/C(=O)NO)cc4)cc3)cc12)c1ccccc1 [Compound 47] | 1 to 10 |  |  | 
C[C@@H](Nc1ncnc2[nH]c(-c3ccc(CN4CCN(CCOCCCCC(=O)NO)CC4)cc3)cc12)c1ccccc1 [Compound 50, (R)—N-hydroxy-5-(2-(4-(4-(4-(1-phenylethylamino)-7H-pyrrolo[2,3-d]pyrimidin-6-yl)benzyl)piperazin-1-yl)ethoxy)pentanamide] | 1 to 10 |  |  | 
C[C@@H](Nc1ncnc2[nH]c(-c3ccc(CN4CCN(CCOCCCCCC(=O)NO)CC4)cc3)cc12)c1ccccc1 [Compound 51, (R)—N-hydroxy-6-(2-(4-(4-(4-(1-phenylethylamino)-7H-pyrrolo[2,3-d]pyrimidin-6-yl)benzyl)piperazin-1-yl)ethoxy)hexanamide] | < 0.1 |  |  | 
C[C@@H](Nc1ncnc2[nH]c(-c3ccc(CN4CCC(NCCCCCC(=O)NO)CC4)cc3)cc12)c1ccccc1 [Compound 55, (R)—N-hydroxy-6-(1-(4-(4-(1-phenylethylamino)-7H-pyrrolo[2,3-d]pyrimidin-6-yl)benzyl)piperidin-4-ylamino)hexanamide] | 1 to 10 |  |  | 
C[C@@H](Nc1ncnc2[nH]c(-c3ccc(CN4CCC(NCCCCCCC(=O)NO)CC4)cc3)cc12)c1ccccc1 [Compound 56, (R)—N-hydroxy-7-(1-(4-(4-(1-phenylethylamino)-7H-pyrrolo[2,3-d]pyrimidin-6-yl)benzyl)piperidin-4-ylamino)heptanamide] | 1 to 10 |  |  | 
C[C@@H](Nc1ncnc2[nH]c(-c3ccc(CN4CCC(NCCCCCCCC(=O)NO)CC4)cc3)cc12)c1ccccc1 [Compound 57, (R)—N-hydroxy-8-(1-(4-(4-(1-phenylethylamino)-7H-pyrrolo[2,3-d]pyrimidin-6-yl)benzyl)piperidin-4-ylamino)octanamide] | 0.1 to 1 |  | < 0.1 | 
C[C@@H](Nc1ncnc2c1cc(-c1ccc(C(=O)NCCNCCCCCCC(=O)NO)cc1)n2C)c1ccccc1 [Compound 58] | 0.1 to 1 |  | 0.1 to 1 | 1 to 10
C[C@@H](Nc1ncnc2c1cc(-c1ccc(CNCCN)cc1)n2CCCCCC(=O)NO)c1ccccc1 [Compound 63] | 0.1 to 1 |  |  | 
C[C@@H](Nc1ncnc2c1cc(-c1ccc(N)cc1)n2CCCCCC(=O)NO)c1ccccc1 [Compound 64] | 0.1 to 1 |  |  | 
C[C@@H](Nc1ncnc2c1cc(-c1ccc(N)cc1)n2CCCCCCC(=O)NO)c1ccccc1 [Compound 65] | < 0.1 |  |  | 

The next lines start with the values.

IC50 (HDAC) [µM] | IC50 (human EGFR) [µM] | IC50 (human HER2/ErbB2) [µM] | IC50 (human VEGFR2) [µM] | SMILES
1 to 10 | 1 to 10 | 1 to 10 |  | C[C@@H](Nc1ncnc2[nH]c(-c3ccc(CNCC(=O)NO)cc3)cc12)c1ccccc1 [Compound 1, (R)—N-Hydroxy-2-(4-(4-(1-phenylethylamino)-7H-pyrrolo[2,3-d]pyrimidin-6-yl)benzylamino)acetamide]
> 10 |  |  | 0.1 to 1 | C[C@@H](Nc1ncnc2[nH]c(-c3ccc(CNCCC(=O)NO)cc3)cc12)c1ccccc1 [Compound 2, (R)—N-Hydroxy-3-(4-(4-(1-phenylethylamino)-7H-pyrrolo[2,3-d]pyrimidin-6-yl)benzylamino)-propanamide]
> 10 | < 0.1 | < 0.1 | 0.1 to 1 | C[C@@H](Nc1ncnc2[nH]c(-c3ccc(CN4CCN(CCC(=O)NO)CC4)cc3)cc12)c1ccccc1 [Compound 12, (R)—N-Hydroxy-3-(4-(4-(4-(1-phenylethylamino)-7H-pyrrolo[2,3-d]pyrimidin-6-yl)benzyl)piperazin-1-yl)propanamide]
1 to 10 | < 0.1 | < 0.1 | 0.1 to 1 | C[C@@H](Nc1ncnc2[nH]c(-c3ccc(CN4CCN(CCCC(=O)NO)CC4)cc3)cc12)c1ccccc1 [Compound 13, (R)—N-Hydroxy-4-(4-(4-(4-(1-phenylethylamino)-7H-pyrrolo[2,3-d]pyrimidin-6-yl)benzyl)piperazin-1-yl)butanamide]
1 to 10 | < 0.1 | 0.1 to 1 | 0.1 to 1 | C[C@@H](Nc1ncnc2[nH]c(-c3ccc(CN4CCN(CCCCC(=O)NO)CC4)cc3)cc12)c1ccccc1 [Compound 14, (R)—N-Hydroxy-5-(4-(4-(4-(1-phenylethylamino)-7H-pyrrolo[2,3-d]pyrimidin-6-yl)benzyl)piperazin-1-yl)pentanamide]
0.1 to 1 |  | 0.1 to 1 | 0.1 to 1 | C[C@@H](Nc1ncnc2[nH]c(-c3ccc(CN4CCN(CCCCCC(=O)NO)CC4)cc3)cc12)c1ccccc1 [Compound 15, (R)—N-Hydroxy-6-(4-(4-(4-(1-phenylethylamino)-7H-pyrrolo[2,3-d]pyrimidin-6-yl)benzyl)piperazin-1-yl)hexanamide]
0.1 to 1 | < 0.1 | 0.1 to 1 | 0.1 to 1 | C[C@@H](Nc1ncnc2[nH]c(-c3ccc(OCCCC(=O)NO)cc3)cc12)c1ccccc1 [Compound 19, (R)—N-Hydroxy-4-(4-(4-(1-phenylethylamino)-7H-pyrrolo[2,3-d]pyrimidin-6-yl)phenoxy)propanamide]
0.1 to 1 | < 0.1 | 0.1 to 1 | 0.1 to 1 | C[C@@H](Nc1ncnc2[nH]c(-c3ccc(OCCCCC(=O)NO)cc3)cc12)c1ccccc1 [Compound 20, (R)—N-Hydroxy-5-(4-(4-(1-phenylethylamino)-7H-pyrrolo[2,3-d]pyrimidin-6-yl)phenoxy)pentanamide]
< 0.1 | < 0.1 | 0.1 to 1 | 1 to 10 | C[C@@H](Nc1ncnc2[nH]c(-c3ccc(OCCCCCC(=O)NO)cc3)cc12)c1ccccc1 [Compound 21, (R)—N-hydroxy-6-(4-(4-(1-phenylethylamino)-7H-pyrrolo[2,3-d]pyrimidin-6-yl)phenoxy)hexanamide]
< 0.1 | < 0.1 | 0.1 to 1 | < 0.1 | C[C@@H](Nc1ncnc2[nH]c(-c3ccc(OCCCCCCC(=O)NO)cc3)cc12)c1ccccc1 [Compound 22, (R)—N-hydroxy-7-(4-(4-(1-phenylethylamino)-7H-pyrrolo[2,3-d]pyrimidin-6-yl)phenoxy)heptanamide]
> 10 | < 0.1 | 0.1 to 1 | 0.1 to 1 | C[C@@H](Nc1ncnc2[nH]c(-c3ccc(NC(=O)CCC(=O)NO)cc3)cc12)c1ccccc1 [Compound 24, (R) —N^1-Hydroxy-N^4-(4-(4-(1-phenylethylamino)-7H-pyrrolo[2,3-d]pyrimidin-6-yl)phenyl)succinamide]
0.1 to 1 |  |  |  | C[C@@H](Nc1ncnc2[nH]c(-c3ccc(OCCNCCCCCC(=O)NO)cc3)cc12)c1ccccc1 [Compound 59, (R)—N-hydroxy-6-(2-(4-(4-(1-phenylethylamino)-7H-pyrrolo[2,3-d]pyrimidin-6-yl)phenoxy)ethylamino)hexanamide]
0.1 to 1 |  | < 0.1 |  | C[C@@H](Nc1ncnc2[nH]c(-c3ccc(OCCNCCCCCCCC(=O)NO)cc3)cc12)c1ccccc1 [Compound 61, (R)—N-hydroxy-8-(2-(4-(4-(1-phenylethylamino)-7H-pyrrolo[2,3-d]pyrimidin-6-yl)phenoxy)ethylamino)octanamide]
1 to 10 |  |  |  | C[C@@H](Nc1ncnc2[nH]c(-c3ccc(OCCCNCCCCCC(=O)NO)cc3)cc12)c1ccccc1 [Compound 62]
 | < 0.1 | < 0.1 | < 0.1 | C[C@@H](Nc1ncnc2[nH]c(-c3ccc(NCCCCCC(=O)NO)cc3)cc12)c1ccccc1 [Compound 66, (R)—N-hydroxy-6-(4-(4-(1-phenylethylamino)-7H-pyrrolo[2,3-d]pyrimidin-6-yl)phenylamino)hexanamide]
